These results are taken from publication PMC7734281, “Functionalized Oxoindolin Hydrazine Carbothioamide Derivatives as Highly Potent Inhibitors of Nucleoside Triphosphate Diphosphohydrolases” (Frontiers in Pharmacology, 2020).

What all share (format): biochemical
For one assay, the target named is T1, m-NTPDase1 (Mus musculus, UniProt P55772).
T1 construct: made in house; host or cells: COS-7 cells, transient transfection; crude protein extract after sonication
T1 sequence (P55772 1-510): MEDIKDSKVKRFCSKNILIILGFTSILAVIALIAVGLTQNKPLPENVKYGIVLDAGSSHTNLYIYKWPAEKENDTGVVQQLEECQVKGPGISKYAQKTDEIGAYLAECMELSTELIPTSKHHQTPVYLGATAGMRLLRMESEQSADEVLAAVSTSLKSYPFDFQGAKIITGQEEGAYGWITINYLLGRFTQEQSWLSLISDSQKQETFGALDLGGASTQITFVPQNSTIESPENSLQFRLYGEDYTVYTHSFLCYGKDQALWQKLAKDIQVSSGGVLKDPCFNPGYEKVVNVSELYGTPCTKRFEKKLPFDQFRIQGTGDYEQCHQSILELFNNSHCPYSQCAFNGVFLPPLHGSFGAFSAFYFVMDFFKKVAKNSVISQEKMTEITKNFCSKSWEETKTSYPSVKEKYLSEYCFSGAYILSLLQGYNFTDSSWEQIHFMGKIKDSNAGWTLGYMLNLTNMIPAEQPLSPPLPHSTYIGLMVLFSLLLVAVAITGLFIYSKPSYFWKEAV
The experiment in a line: m-NTPDase1 inhibition, malachite green assay. The following applies: for inhibition at 100 µM: compound 100 µM; for IC50: mean ± SEM of three independent experiments. The procedure: (§1) COS-7 cells were transfected with plasmids expressing human or mouse NTPDases1, -2, -3, and -8 as previously described ([Levesque et al., 2007]; [Lecka et al., 2014]) Briefly, the confluent cells were transferred to Dulbecco’s Modified Eagle’s Medium containing no fetal bovine serum. Then, these cells were incubated with plasmid DNA (6 µg) and Lipofectamine reagent (24 µl) at 37°C. After 5 h, transfection was terminated with the addition of an equal volume of DMEM/F-12 (supplemented with 20% FBS) and cells were collected by harvesting after 40–72 h.
(§2) To prepare protein extracts, transfected COS-7 cells were washed three times with tris-saline buffer while temperature was maintained at 4°C. Then cells were scraped and resuspended in harvesting buffer containing 95 mM NaCl, 45 mM tris and 0.1 mM phenylmethylsulfonyl fluoride (pH 7.5). Cells were again washed twice by centrifugation for 5 min at 300 × g at 4°C and then resuspended in harvesting buffer (supplemented with 10 μg ml aprotinin). Following sonication, cellular debris was isolated by 10 min centrifugation at 300 g at 4°C. Subsequently, supernatant was removed very carefully and protein concentration was determined by using Bradford microplate assay while using the bovine serum albumin as a standard ([Bradford, 1976]).
(§3) The inhibitory effects of synthesized compounds on h-NTPDase1, -2, -3, and -8 were determined as described previously, although with slight modifications ([Martín-Satué et al., 2009]). Assay was conducted in a reaction medium containing 50 mM tris-HCl and 5 mM CaCl2 (pH 7.4). All the test compounds were dissolved in dimethyl sulfoxide (DMSO, 10%) and initially screened at a concentration of 100 µM. A reaction mixture containing 55 µl of assay buffer, 10 µl of test compound solution and 10 µl of h-NTPDase1 (58 ng/well) or h-NTPDase2 (79 ng/well) or h-NTPDase3 (163 ng/well) or h-NTPDase8 (66 ng/well) was incubated at 37°C for 10 min. Following the incubation, a 10 µl solution of adenosine triphosphate (ATP, 100 µm) was added as substrate and reaction mixture was again incubated for 15 min at 37°C. The reaction was stopped by adding malachite green reagent (15 µl) and placed at room temperature for 4 to 6 min. Finally, absorbance was measured at 630 nm by using Omega FLUOstar microplate reader (BMG Labtech, Ortenberg, Germany) and % inhibitions were calculated. For compounds showing more than 50% inhibition of any isozyme, dose response curves were generated and their IC50 values were determined. Three separate enzyme inhibition assays were carried out in triplicate and dose-response curve were generated by using PRISM 5.0 (GraphPad, San Diego, United States).
(§4) Same procedure was adopted to determine the inhibitory effects of compounds on mouse NTPDases (m-NTPDases). However, the amount of protein used was as follows: m-NTPDase1 (82 ng/well), m-NTPDase2 (57 ng/well), m-NTPDase3 (110 ng/well) and m-NTPDase8 (79 ng/well)

Another assay concerns the target T2, m-NTPDase3 (Mus musculus, UniProt Q8BFW6).
T2 construct: made in house; host or cells: COS-7 cells, transient transfection; crude protein extract after sonication
T2 sequence (Q8BFW6 1-529): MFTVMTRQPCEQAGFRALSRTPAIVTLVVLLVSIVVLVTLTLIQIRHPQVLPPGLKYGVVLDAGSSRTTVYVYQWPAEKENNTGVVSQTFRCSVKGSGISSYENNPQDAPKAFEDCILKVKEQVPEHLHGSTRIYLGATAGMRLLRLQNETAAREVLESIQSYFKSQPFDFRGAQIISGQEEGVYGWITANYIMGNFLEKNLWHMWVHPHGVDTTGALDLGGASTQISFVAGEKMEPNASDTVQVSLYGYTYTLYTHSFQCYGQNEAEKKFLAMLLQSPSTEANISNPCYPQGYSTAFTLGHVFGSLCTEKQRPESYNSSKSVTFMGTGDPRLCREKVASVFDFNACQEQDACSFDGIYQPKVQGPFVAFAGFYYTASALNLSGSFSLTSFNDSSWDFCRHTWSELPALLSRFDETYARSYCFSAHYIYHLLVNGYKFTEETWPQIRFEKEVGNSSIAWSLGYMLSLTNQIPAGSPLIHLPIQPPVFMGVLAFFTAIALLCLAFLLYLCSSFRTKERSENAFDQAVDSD
Briefly: m-NTPDase3 inhibition, malachite green assay. The following applies: for inhibition at 100 µM: compound 100 µM; for IC50: mean ± SEM of three independent experiments. The protocol:
as §1, §2, §3, §4

In the next assay the target is T3, h-NTPDase2 (Homo sapiens, UniProt Q9Y5L3).
T3 construct: made in house; host or cells: COS-7 cells, transient transfection; crude protein extract after sonication
T3 sequence (Q9Y5L3 1-495): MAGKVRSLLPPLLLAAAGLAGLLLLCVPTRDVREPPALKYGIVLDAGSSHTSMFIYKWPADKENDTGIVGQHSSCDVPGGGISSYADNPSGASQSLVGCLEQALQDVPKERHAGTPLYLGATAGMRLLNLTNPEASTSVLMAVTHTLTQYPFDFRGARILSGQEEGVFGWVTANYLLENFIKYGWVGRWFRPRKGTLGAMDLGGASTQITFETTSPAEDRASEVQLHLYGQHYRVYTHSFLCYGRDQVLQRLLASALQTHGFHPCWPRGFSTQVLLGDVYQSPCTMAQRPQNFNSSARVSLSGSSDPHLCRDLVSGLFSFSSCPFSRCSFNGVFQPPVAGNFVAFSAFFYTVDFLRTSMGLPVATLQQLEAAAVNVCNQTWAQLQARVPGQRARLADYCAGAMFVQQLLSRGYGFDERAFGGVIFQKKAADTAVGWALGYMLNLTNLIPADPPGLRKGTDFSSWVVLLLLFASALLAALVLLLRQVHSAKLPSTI
The experiment in a line: h-NTPDase2 inhibition, malachite green assay. The following applies: for inhibition at 100 µM: compound 100 µM; for IC50: ATP 100 µM substrate, mean ± SEM of three independent experiments. The protocol:
as §1, §2, §3

By inhibition is commonly meant the relative decrease from the control value, in per cent. High values mean a strong effect, low ones a weak effect. For the compound `O=C1Nc2ccccc2/C1=N/NC(=S)Nc1ccccc1` [8a, (Z)-2-(2-oxoindolin-3-ylidene)-N-phenylhydrazine-1-carbothioamide], the inhibition at 100 µM is 38% against m-NTPDase1, 31% against m-NTPDase3 and 24% at h-NTPDase2.

In the case of `O=C1Nc2ccccc2/C1=N/NC(=S)Nc1ccc([N+](=O)[O-])cc1` [8b, (Z)-N-(4-nitrophenyl)-2-(2-oxoindolin-3-ylidene)hydrazine-1-carbothioamide], the figures for the inhibition at 100 µM against m-NTPDase1 and on m-NTPDase3 were 14% and 28%, respectively.

As for `O=C1Nc2ccccc2/C1=N/NC(=S)Nc1ccc(Cl)cc1` [8c, (Z)-N-(4-chlorophenyl)-2-(2-oxoindolin-3-ylidene)hydrazine-1-carbothioamide], the inhibition at 100 µM on m-NTPDase1 was found to be 28%; on h-NTPDase2, 46%.

Consider `O=C1Nc2ccccc2/C1=N/NC(=S)Nc1ccc(F)cc1` [8d, (Z)-N-(4-fluorophenyl)-2-(2-oxoindolin-3-ylidene)hydrazine-1-carbothioamide], for which the values for the inhibition at 100 µM at m-NTPDase1, against m-NTPDase3 and against h-NTPDase2 were 41%, 29% and 48%, respectively.

Broadly, the Ki is the dissociation constant of the complex between target and ligand, obtained from inhibition or displacement. In general, IC50 refers to the midpoint of a concentration-inhibition curve. Take `COc1cccc(NC(=S)N/N=C2\C(=O)Nc3ccccc32)c1` [8e, (Z)-N-(3-methoxyphenyl)-2-(2-oxoindolin-3-ylidene)hydrazine-1-carbothioamide]: on m-NTPDase1, the Ki was found to be 0.006 µM and the IC50 turned out to be 0.6 ± 0.03 µM. Besides, at m-NTPDase3, affinity was put at a Ki of 0.07 µM and the IC50 came to 0.7 ± 0.05 µM. Moreover, the inhibition at 100 µM against h-NTPDase2 is less than 50%.

As to `O=C1Nc2ccccc2/C1=N/NC(=S)NCc1ccccc1` [8f, (Z)-N-benzyl-2-(2-oxoindolin-3-ylidene)hydrazine-1-carbothioamide], on m-NTPDase1, the affinity, expressed as Ki, was 0.04 µM and half-maximal inhibition (IC50) required 4.14 ± 0.13 µM. Further, at m-NTPDase3, 100 µM produced 32% inhibition. This compound also came in with an inhibition at 100 µM at h-NTPDase2 of less than 50%.

Turning to `O=C1Nc2ccccc2/C1=N/NC(=S)Nc1cccc(Cl)c1` [8g, (Z)-N-(3-chlorophenyl)-2-(2-oxoindolin-3-ylidene)hydrazine-1-carbothioamide], the values for the inhibition at 100 µM against m-NTPDase1, at m-NTPDase3 and at h-NTPDase2 were 48%, 27% and 29%, respectively.

With `Cc1ccc(NC(=S)N/N=C2\C(=O)Nc3ccccc32)cc1` [8h, (Z)-2-(2-oxoindolin-3-ylidene)-N-(p-tolyl)hydrazine-1-carbothioamide], the figures for the inhibition at 100 µM against m-NTPDase1, against m-NTPDase3 and at h-NTPDase2 were 29%, 31% and 17%, respectively.

The compound `Cc1cccc(C)c1NC(=S)N/N=C1\C(=O)Nc2ccccc21` [8i, (Z)-N-(2,6-dimethylphenyl)-2-(2-oxoindolin-3-ylidene)hydrazine-1-carbothioamide] registered an inhibition at 100 µM against m-NTPDase1 of 20%. On m-NTPDase3, this compound had an inhibition at 100 µM of 32%. Further, at h-NTPDase2, the Ki was 0.17 µM and inhibition was half-maximal at 0.41 ± 0.03 µM (IC50).

For `COc1ccc(OC)c(NC(=S)N/N=C2\C(=O)Nc3ccccc32)c1` [8j, (Z)-N-(2,5-dimethoxyphenyl)-2-(2-oxoindolin-3-ylidene)hydrazine-1-carbothioamide], the inhibition at 100 µM at m-NTPDase1 stood at 24%; at m-NTPDase3 it was 30%. This compound also displayed a Ki on h-NTPDase2 of 0.04 µM. Further, the IC50 at h-NTPDase2 came out at 0.11 ± 0.08 µM.

At m-NTPDase1, `COc1ccc(NC(=S)NNC2=c3ccccc3=NC2=O)cc1` [8k, (Z)-N-(4-methoxyphenyl)-2-(2-oxoindolin-3-ylidene)hydrazine-1-carbothioamide] yielded an inhibition at 100 µM of 42%. On m-NTPDase3, this compound registered an inhibition at 100 µM of 36%. On h-NTPDase2, this compound showed a Ki of 0.07 µM and an IC50 of 0.16 ± 0.01 µM.

Regarding `O=C1Nc2ccccc2/C1=N/NC(=S)Nc1c(F)cccc1F` [8l, (Z)-N-(2,6-difluorophenyl)-2-(2-oxoindolin-3-ylidene)hydrazine-1-carbothioamide], on m-NTPDase1, affinity was put at a Ki of 0.03 µM and it took 3.22 ± 0.19 µM to reach half-maximal inhibition (IC50). At m-NTPDase3, this compound returned a Ki of 0.03 µM and an IC50 of 0.32 ± 0.04 µM. The inhibition at 100 µM against h-NTPDase2 is less than 50%.

For `CCNC(=S)N/N=C1\C(=O)Nc2ccccc21` [8m, (Z)-N-ethyl-2-(2-oxoindolin-3-ylidene)hydrazine-1-carbothioamide], the values for the Ki on m-NTPDase1 and at m-NTPDase3 were 0.04 µM and 0.24 µM, respectively. In addition, the values for the IC50 on m-NTPDase1 and on m-NTPDase3 were 3.6 ± 0.02 µM and 2.41 ± 0.15 µM, respectively. In addition, at 100 µM the inhibition at h-NTPDase2 was 42%.

Turning to `Cc1ccc(C(=O)Nc2ccc(S(=O)(=O)O)c3cc(S(=O)(=O)O)cc(S(=O)(=O)O)c23)cc1NC(=O)c1cccc(NC(=O)Nc2cccc(C(=O)Nc3cc(C(=O)Nc4ccc(S(=O)(=O)O)c5cc(S(=O)(=O)O)cc(S(=O)(=O)O)c45)ccc3C)c2)c1` [Suramin, reference compound], the IC50 against m-NTPDase1 was greater than 100 µM; on m-NTPDase3, 31 ± 2 µM; on h-NTPDase2 it was 24.1 ± 3.01 µM. Further, the Ki on m-NTPDase3 was 3.07 µM; on h-NTPDase2, 9.92 µM.
